Reference: ChEMBL document CHEMBL4033665, “Synthesis and applications of benzohydroxamic acid-based histone deacetylase inhibitors” (Eur J Med Chem, 2017)
Each block holds one compound with its values, some of them ahead of it.

Assays:
[1] = target: T1, Protein deacetylase HDAC6 (Homo sapiens, UniProt Q9UBN7); test: Inhibition of recombinant human HDAC6 using Boc-Lys(acetyl)-AMC as substrate after 1 hr by fluorescence assay
T1 sequence (Q9UBN7 whole entry): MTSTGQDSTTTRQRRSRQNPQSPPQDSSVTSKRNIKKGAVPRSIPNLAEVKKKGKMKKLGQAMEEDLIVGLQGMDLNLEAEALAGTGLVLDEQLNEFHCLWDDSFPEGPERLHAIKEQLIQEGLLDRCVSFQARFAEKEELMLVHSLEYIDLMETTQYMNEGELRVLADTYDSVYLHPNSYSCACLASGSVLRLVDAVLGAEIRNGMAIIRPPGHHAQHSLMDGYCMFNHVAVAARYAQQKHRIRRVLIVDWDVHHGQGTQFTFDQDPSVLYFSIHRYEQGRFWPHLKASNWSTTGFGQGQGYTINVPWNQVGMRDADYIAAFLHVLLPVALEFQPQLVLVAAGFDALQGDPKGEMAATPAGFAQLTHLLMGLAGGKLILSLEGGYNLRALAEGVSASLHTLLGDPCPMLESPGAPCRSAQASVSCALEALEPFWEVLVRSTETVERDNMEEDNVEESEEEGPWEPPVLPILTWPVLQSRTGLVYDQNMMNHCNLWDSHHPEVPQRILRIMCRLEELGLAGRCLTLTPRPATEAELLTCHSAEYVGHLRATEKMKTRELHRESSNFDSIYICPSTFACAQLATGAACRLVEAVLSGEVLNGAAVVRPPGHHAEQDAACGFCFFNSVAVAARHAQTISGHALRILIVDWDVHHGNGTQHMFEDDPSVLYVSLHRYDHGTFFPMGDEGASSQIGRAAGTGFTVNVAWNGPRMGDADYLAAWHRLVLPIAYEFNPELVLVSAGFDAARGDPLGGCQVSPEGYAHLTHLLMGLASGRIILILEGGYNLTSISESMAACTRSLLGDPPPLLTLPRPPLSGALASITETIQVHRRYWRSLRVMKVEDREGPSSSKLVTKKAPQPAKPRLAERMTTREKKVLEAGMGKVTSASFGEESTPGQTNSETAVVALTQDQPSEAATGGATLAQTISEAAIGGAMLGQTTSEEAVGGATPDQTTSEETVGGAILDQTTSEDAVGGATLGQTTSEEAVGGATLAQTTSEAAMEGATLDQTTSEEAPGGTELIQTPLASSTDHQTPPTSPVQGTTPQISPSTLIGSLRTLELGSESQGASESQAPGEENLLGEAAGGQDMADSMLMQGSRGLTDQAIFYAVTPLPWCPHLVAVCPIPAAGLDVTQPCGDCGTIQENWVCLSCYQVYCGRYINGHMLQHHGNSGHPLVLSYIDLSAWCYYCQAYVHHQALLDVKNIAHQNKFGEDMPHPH

Histone deacetylase 2 [2] = target: T2, Histone deacetylase 2 (Homo sapiens, UniProt Q92769); test: Inhibition of HDAC2 (unknown origin)
Histone deacetylase 3 = Histone deacetylase 3 (Homo sapiens, UniProt O15379); test: Inhibition of HDAC3 (unknown origin)
[3] = target: T3, Polyamine deacetylase HDAC10 (Homo sapiens, UniProt Q969S8); test: Inhibition of HDAC10 (unknown origin)
T3 sequence (Q969S8 whole entry): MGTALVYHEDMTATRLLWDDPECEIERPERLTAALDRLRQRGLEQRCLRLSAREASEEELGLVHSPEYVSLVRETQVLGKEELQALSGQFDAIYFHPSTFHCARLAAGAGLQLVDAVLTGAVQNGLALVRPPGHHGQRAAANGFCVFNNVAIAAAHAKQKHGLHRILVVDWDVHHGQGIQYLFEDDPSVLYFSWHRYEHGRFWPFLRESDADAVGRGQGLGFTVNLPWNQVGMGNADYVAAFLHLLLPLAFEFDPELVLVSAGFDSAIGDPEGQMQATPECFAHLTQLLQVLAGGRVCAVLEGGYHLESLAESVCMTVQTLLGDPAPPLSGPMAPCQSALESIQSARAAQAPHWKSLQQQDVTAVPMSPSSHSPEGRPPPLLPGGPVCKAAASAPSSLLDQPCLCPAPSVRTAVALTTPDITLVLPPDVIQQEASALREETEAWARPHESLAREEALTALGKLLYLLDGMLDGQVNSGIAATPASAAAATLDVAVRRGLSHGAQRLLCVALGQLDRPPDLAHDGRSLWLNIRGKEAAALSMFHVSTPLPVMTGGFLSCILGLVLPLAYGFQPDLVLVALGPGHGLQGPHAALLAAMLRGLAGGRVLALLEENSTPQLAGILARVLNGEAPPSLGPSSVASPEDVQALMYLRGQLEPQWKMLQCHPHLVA

[4] = target: T1, Protein deacetylase HDAC6; test: Inhibition of HDAC6 (unknown origin)
Histone deacetylase 11 = target: T4, Histone deacetylase 11 (Homo sapiens, UniProt Q96DB2); test: Inhibition of HDAC11 (unknown origin)
T4 sequence (Q96DB2 whole entry): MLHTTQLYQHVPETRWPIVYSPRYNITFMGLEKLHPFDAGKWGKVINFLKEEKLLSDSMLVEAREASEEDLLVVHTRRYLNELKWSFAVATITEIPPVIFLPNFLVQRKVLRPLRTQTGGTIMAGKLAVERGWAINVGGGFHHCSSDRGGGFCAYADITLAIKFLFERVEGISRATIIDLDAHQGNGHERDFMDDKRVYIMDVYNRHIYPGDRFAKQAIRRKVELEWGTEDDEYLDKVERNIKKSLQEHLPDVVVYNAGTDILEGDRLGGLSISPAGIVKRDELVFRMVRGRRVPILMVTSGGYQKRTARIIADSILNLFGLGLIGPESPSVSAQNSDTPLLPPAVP

Histone deacetylase 8 [5] = target: T5, Histone deacetylase 8 (Homo sapiens, UniProt Q9BY41); test: Inhibition of HDAC8 (unknown origin)
T5 sequence (Q9BY41 whole entry): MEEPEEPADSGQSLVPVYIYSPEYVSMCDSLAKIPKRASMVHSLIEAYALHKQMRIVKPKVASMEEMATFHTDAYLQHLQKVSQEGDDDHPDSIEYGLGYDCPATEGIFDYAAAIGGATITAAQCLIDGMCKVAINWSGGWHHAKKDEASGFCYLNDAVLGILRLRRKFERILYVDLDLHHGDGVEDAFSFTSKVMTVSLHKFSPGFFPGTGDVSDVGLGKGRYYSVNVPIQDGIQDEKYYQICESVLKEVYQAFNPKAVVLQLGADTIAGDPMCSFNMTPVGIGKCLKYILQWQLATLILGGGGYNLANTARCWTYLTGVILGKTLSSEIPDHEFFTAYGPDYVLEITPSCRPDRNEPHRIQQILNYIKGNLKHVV

Histone deacetylase 4 [6] = target: T6, Histone deacetylase 4 (Homo sapiens, UniProt P56524); test: Inhibition of HDAC4 (unknown origin)
Histone deacetylase 5 [7] = target: T7, Histone deacetylase 5 (Homo sapiens, UniProt Q9UQL6); test: Inhibition of HDAC5 (unknown origin)
[8] = Inhibition of HDAC activity in human DU-145 cell nuclear extract
Histone deacetylase 1 [9] = target: T8, Histone deacetylase 1 (Homo sapiens, UniProt Q13547); test: Inhibition of HDAC1 (unknown origin)
Histone deacetylase 9 = Histone deacetylase 9 (Homo sapiens, UniProt Q9UKV0); test: Inhibition of HDAC9 (unknown origin)
Histone deacetylase 2 [10] = target: T2, Histone deacetylase 2; test: Inhibition of human HDAC2 after 15 mins by trypsin-coupled fluorescence assay
Histone deacetylase 8 [11] = target: T5, Histone deacetylase 8; test: Inhibition of human HDAC8 using RHKKAc as substrate by fluorescence assay
[12] = target: T3, Polyamine deacetylase HDAC10; test: Inhibition of human HDAC10 using RHKKAc as substrate by fluorescence assay
Histone deacetylase 2 [13] = target: T2, Histone deacetylase 2; test: Inhibition of human HDAC2 using RHKKAc as substrate by fluorescence assay
Histone deacetylase 5 [14] = target: T7, Histone deacetylase 5; test: Inhibition of human HDAC5 using RHKKAc as substrate by fluorescence assay
Histone deacetylase 4 [15] = target: T6, Histone deacetylase 4; test: Inhibition of human HDAC4 using RHKKAc as substrate by fluorescence assay
[16] = target: T1, Protein deacetylase HDAC6; test: Inhibition of human HDAC6 using RHKKAc as substrate by fluorescence assay
Histone deacetylase 1 [17] = target: T8, Histone deacetylase 1; test: Inhibition of human HDAC1 using RHKKAc as substrate by fluorescence assay

T8 sequence (Q13547 whole entry): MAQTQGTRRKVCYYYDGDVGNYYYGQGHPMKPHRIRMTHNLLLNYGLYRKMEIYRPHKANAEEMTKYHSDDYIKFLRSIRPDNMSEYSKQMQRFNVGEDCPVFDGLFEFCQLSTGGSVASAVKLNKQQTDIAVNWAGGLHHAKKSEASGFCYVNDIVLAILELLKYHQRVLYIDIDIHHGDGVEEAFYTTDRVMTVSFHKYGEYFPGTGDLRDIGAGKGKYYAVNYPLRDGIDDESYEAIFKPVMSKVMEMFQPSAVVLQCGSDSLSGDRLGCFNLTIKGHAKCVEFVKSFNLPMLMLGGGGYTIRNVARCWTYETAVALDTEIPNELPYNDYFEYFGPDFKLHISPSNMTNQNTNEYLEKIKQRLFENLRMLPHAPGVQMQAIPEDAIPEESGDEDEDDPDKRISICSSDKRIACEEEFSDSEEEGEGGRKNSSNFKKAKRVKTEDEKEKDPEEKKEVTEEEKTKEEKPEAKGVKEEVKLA
T2 sequence (Q92769 whole entry): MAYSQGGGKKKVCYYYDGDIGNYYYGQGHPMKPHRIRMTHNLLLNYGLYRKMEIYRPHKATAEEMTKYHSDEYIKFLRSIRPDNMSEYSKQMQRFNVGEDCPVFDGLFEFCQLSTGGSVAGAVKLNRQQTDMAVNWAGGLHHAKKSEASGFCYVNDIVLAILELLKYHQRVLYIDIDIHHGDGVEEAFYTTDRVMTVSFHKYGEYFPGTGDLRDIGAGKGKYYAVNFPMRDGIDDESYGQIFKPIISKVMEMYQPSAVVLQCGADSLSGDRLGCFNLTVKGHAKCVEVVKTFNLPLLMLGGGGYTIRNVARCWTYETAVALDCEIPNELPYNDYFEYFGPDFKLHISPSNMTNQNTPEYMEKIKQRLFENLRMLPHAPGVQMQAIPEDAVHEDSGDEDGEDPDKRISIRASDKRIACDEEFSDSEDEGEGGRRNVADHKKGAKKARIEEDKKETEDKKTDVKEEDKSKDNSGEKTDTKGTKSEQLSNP
T6 sequence (P56524 whole entry): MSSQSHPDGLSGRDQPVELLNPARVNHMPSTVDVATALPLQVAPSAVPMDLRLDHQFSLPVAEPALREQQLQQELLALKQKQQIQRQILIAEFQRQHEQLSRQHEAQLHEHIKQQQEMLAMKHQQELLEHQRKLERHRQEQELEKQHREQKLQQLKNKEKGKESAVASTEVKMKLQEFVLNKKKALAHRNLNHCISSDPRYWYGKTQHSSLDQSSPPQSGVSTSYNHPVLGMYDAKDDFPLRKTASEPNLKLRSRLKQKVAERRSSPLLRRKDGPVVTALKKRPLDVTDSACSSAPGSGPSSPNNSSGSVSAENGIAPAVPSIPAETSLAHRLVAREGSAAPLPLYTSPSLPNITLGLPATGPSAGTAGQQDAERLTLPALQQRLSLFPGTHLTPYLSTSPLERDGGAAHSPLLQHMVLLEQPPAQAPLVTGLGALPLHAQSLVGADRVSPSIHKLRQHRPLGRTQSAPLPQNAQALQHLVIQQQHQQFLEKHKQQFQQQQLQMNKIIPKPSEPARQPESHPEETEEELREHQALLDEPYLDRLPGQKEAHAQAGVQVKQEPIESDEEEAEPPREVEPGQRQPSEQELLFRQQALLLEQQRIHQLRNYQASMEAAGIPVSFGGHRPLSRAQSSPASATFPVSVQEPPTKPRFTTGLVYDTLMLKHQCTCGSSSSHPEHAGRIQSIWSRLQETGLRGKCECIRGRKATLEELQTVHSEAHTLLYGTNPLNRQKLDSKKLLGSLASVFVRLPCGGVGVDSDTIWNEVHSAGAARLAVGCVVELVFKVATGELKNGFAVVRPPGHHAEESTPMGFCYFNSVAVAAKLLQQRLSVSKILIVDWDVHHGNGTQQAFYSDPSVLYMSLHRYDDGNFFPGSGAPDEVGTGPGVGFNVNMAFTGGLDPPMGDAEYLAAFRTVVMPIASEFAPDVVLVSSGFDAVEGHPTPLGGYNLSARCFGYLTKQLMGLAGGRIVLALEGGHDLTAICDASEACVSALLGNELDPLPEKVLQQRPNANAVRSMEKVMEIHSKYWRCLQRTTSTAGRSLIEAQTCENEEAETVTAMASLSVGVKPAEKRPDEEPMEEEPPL
T7 sequence (Q9UQL6 whole entry): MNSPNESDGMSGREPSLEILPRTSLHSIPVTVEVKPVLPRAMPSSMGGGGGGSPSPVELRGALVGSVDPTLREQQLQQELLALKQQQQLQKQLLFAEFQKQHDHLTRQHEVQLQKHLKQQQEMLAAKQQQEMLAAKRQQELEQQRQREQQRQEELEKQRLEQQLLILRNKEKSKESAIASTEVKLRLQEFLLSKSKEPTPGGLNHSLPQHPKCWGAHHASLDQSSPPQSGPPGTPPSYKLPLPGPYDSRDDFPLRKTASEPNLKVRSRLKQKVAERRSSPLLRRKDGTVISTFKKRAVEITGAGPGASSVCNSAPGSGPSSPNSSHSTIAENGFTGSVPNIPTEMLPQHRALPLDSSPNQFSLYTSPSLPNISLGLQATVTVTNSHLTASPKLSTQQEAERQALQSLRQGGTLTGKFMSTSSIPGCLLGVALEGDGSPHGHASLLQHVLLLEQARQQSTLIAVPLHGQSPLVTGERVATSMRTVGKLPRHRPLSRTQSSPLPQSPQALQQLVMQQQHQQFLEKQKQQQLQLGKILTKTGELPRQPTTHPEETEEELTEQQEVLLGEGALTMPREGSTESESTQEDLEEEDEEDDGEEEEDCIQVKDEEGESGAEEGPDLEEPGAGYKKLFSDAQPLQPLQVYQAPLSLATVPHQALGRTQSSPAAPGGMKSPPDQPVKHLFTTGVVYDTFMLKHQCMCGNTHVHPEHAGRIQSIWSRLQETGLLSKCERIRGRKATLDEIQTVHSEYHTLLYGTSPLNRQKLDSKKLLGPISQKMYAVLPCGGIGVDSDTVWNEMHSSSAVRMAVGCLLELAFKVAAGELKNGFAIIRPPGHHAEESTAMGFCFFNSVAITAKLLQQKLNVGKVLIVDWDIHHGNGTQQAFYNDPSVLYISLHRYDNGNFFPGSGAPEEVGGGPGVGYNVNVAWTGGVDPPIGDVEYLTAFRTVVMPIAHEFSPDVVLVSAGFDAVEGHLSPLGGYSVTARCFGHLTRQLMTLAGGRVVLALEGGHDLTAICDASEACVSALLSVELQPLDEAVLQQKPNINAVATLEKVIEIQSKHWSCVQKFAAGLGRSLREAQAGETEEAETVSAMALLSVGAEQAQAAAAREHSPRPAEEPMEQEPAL
Sequence of Histone deacetylase 3 (O15379 whole entry): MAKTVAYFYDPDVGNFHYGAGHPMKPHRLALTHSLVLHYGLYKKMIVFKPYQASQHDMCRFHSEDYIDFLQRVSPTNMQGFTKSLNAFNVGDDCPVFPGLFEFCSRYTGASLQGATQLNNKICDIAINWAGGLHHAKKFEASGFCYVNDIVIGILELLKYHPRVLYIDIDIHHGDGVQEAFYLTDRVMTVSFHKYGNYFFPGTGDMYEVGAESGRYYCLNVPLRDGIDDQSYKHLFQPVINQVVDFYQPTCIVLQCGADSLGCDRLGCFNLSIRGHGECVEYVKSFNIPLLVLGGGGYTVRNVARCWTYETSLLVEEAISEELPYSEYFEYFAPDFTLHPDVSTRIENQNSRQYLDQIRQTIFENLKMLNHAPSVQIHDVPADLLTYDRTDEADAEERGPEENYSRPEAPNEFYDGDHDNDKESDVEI
Sequence of Histone deacetylase 9 (Q9UKV0 whole entry): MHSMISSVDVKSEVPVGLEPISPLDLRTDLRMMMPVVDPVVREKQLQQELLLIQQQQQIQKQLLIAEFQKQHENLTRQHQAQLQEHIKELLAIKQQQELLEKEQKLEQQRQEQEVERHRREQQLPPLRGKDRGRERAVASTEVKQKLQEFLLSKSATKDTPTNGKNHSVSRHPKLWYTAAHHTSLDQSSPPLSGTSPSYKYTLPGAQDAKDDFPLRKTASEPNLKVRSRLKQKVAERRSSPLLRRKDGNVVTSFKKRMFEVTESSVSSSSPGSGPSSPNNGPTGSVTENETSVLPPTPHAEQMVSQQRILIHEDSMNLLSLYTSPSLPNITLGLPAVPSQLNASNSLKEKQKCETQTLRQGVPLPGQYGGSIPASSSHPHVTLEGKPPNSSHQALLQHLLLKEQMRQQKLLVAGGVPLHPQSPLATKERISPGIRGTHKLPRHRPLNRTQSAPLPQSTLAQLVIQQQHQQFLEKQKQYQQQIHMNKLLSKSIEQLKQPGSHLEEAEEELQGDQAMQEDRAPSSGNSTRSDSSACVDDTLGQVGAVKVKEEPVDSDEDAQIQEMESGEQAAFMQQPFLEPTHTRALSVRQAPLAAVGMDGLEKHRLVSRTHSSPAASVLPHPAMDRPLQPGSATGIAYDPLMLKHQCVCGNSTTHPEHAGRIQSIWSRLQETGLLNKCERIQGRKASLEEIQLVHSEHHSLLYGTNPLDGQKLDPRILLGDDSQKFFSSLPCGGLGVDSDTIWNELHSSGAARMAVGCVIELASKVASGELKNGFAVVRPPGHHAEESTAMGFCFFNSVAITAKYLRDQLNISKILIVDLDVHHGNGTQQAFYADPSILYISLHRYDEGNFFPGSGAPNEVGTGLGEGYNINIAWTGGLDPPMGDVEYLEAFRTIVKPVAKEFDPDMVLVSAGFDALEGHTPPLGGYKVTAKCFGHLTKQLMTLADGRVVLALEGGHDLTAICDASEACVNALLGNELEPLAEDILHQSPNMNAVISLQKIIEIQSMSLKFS

Structure (SMILES): O=C(Cc1ccc(C(=O)NO)cc1)NC1=CC(=O)c2ccccc2C1=O
IC50 [1]: 6 nM

Structure (SMILES): Cc1nc2ccccc2n1Cc1ccc(C(=O)NO)cc1F
IC50 (Histone deacetylase 2 [2]): 20.3 µM
IC50 (Histone deacetylase 3): 12.5 µM
IC50 [3]: 20.4 µM
IC50 [4]: 0.8 nM
IC50 (Histone deacetylase 11): 12.9 µM
IC50 (Histone deacetylase 8 [5]): 200 nM
IC50 (Histone deacetylase 4 [6]): 500 nM
IC50 (Histone deacetylase 5 [7]): 200 nM

Structure (SMILES): O=C(NO)c1ccc(Cn2c3c(c4ccccc42)S(=O)(=O)CC3)cc1
IC50 (Histone deacetylase 1 [9]): 12 µM
IC50 (Histone deacetylase 2 [2]): > 30 µM
IC50 [3]: 13 µM
IC50 [4]: 8 nM
IC50 (Histone deacetylase 11): 17 µM
IC50 (Histone deacetylase 8 [5]): 1900 nM
IC50 (Histone deacetylase 4 [6]): 600 nM
IC50 (Histone deacetylase 5 [7]): 400 nM
IC50 (Histone deacetylase 9): 200 nM

Structure (SMILES): O=C(NO)c1ccc(CC(=O)N(CCO)c2ccccc2)cc1
IC50 (Histone deacetylase 2 [10]): 4.4 µM

Second part, the compound after the results:

IC50 [8]: 44 nM
Structure (SMILES): O=C(CCCc1ccccc1)Nc1ccc(C(=O)NO)cc1

IC50 (Histone deacetylase 1 [9]): 0.01 µM
IC50 (Histone deacetylase 3): 0.07 µM
Structure (SMILES): O=C(/C=C/c1cccc(C(=O)NO)c1)NO

IC50 (Histone deacetylase 8 [11]): 250 nM
IC50 [12]: 10.5 µM
IC50 (Histone deacetylase 2 [13]): 7.45 µM
IC50 (Histone deacetylase 5 [14]): 1570 nM
IC50 (Histone deacetylase 4 [15]): 3.82 µM
IC50 [16]: 4 nM
IC50 (Histone deacetylase 1 [17]): 3.62 µM
Structure (SMILES): CN1C(=O)C2CN(Cc3c2c2ccccc2n3Cc2ccc(C(=O)NO)cc2)C1=O (centres undefined)
